# Results taken from patent US20030144347A1, “Method for treating autoimmune disease” (priority 2001, published 2003).
# How the values were obtained:
# [1] = tested on: patient suffering from multiple sclerosis; experiment: Case reports: patients suffering from multiple sclerosis treated with topiramate; assay type: in vivo, human
# Protocol: A patient suffering from multiple sclerosis was administered 15 mg per day of topiramate. The dosage was increased after 15 days to 30 mg per day. At 15 mg, the patient's involuntary stretch rigid response stopped and the patient was able to get out of bed without falling backward when their feet touched the floor for the first time in nine years.
# The patient previously took trazadone 100 mg at bedtime, clonazepan 1 mg three times a day, citalapram 40 mg each morning, gabapentrin 600 mg four times a day, and synthroid 25 mcg per day for two years. They had refused steroids and interferon because of side effects.
# The Topamax was increased to 15 mg at bedtime and they reported “no bad bladder accidents” and that their leg and foot cramps had disappeared. […] They were discharged on Topamax 15 mg at bedtime along with previous medications. The patient was much improved medically and emotionally.
# The patient returned four weeks later walking with a cane, having worked “10 to 14 hours per day and exhausted from my move with little sleep during the past month”. They reported “insatiable itching all over my body wherever my clothes touch the skin” which […] unsuccessfully tried to treat with cetirizine. […] said […] felt “dizzy, weak, Charlie horses in arches of feet and toes, unable to stand for more than 10 minutes before starting to have gait problems, problems sleeping, having trouble mentally and urine leaking”. […] working diagnoses are Axis I Bipolar disorder, not otherwise specified Axis III multiple sclerosis. […]
# [2] = tested on: patient suffering from diabetes, Type 1; experiment: Case report: patient suffering from diabetes, Type 1; assay type: in vivo, human; conditions: Example 2
# Protocol: A patient suffering from diabetes, Type 1, was administered 25 mg per day of topiramate for 10 days, which was then increased to 50 mg per day.
# [3] = tested on: patient suffering from systemic lupus erythematosis; experiment: Case report: patient suffering from systemic lupus erythematosis; assay type: in vivo, human; conditions: Example 11
# Protocol: A young adolescent patient suffering from systemic lupus erythematosis and taking 30 mg bid of prednisone began taking 15 mg per day of topiramate. […] The prednisone was reduced to 25 mg per day after 4 weeks and to 10 mg after 6 weeks. This benefit has continued for over 6 months.
# [4] = tested on: patient suffering from pemphigus vulgaris; experiment: Case reports: patients suffering from pemphigus vulgaris; assay type: in vivo, human
# Protocol: A patient suffering from pemphigus vulgaris and taking 15 mg of chobetesol propionate per day began taking 15 mg per day of topiramate. The dose was increased to 45 mg in divided dosages over a three week period. […] This occurred and was maintained even after chobetesol propionate was reduced to 5 mg every 3 days, at 8 weeks from the initial dose of 15 mg per day. […] A patient suffering from permphigus vulgaris and taking 50 mg twice a day of immuran and 20 mg per day of prednisone began taking 15 mg per day of topiramate. The dose was increased to 45 mg per day in divided dosages over a three-week period. […] This occurred in spite of reducing the immuran to 50 mg and prednisone to 10 mg each day, which were their lowest dosages in two years. […] These improvements continued to be maintained at 20 weeks and Ig antibody was zero.
# [5] = tested on: patient suffering from ulcerative colitis; experiment: Case reports: patients suffering from ulcerative colitis; assay type: in vivo, human
# human epilepsy = conditions: clinical trials; cited from earlier work
# [6] = Example 18, 15 mg at bedtime, two days later
structure (smiles),measurement,setting,value
"CC1(C)O[C@@H]2[C@@H](CO[C@@]3(COS(N)(=O)=O)OC(C)(C)O[C@@H]23)O1 [topiramate, 2,3:4,5-bis-O-(1-methylethylidence)-β-D-fructopyranose sulfamate]",duration of beneficial effect,"[1]; Example 1, 12.5 mg per day",more than 10 months
same,involuntary stretch rigid response,"[1]; Example 1, 15 mg per day",stopped
same,spastic rigid response,"[1]; Example 1, dose lowered to 12.5 mg per day",no longer present
same,involuntary stretch rigid response,"[1]; Example 1, higher dose of 30 mg per day",reversed this benefit
same,walking and back pain,"[1]; Example 18, 7.5 mg at bedtime for three days",walking better and reported reduced back pain
same,leg and foot cramps,"[1]; Example 18, 15 mg at bedtime",disappeared
same,urinary incontinence and back pain,[1]; [6],no urinary incontinence or back pain
same,walking,[1]; [6],walking without a cane
same,patient-reported symptoms,"[1]; Example 18, 30 mg at bedtime, seen eight days later","no dizziness, weakness, urinary incontinence and decreased gait problems, itching and pain"
same,follow-up period with blood glucose remaining in that range,[2],16 weeks
same,clinical change,[3]; 15 mg in the morning and 30 mg every evening,further improvement
same,clinical change,"[3]; 15 mg per day, after seven days",minimal change
same,carbohydrate craving,[3]; 15 mg twice a day,markedly reduced
same,"facial and body rash, headaches, joint pain",[3]; 15 mg twice a day,"began to subside, headaches disappeared and joint pain greatly diminished"
same,energy and mood,"[3]; 15 mg twice a day, over the next two weeks",striking improvement in energy and mood
same,duration of benefit,[3]; prednisone reduced to 10 mg,over 6 months
same,time at which improvement continued to be maintained,[4]; Example 13,12 weeks
same,lesions,"[4]; Example 13, 45 mg in divided dosages, chobetesol propionate reduced","began to shrink, dried up and formed a scab, which came off leaving normal skin"
same,time at which improvements continued to be maintained,[4]; Example 14,20 weeks
same,lesions,"[4]; Example 14, 30 mg twice a day",second lesion healing
same,lesions,"[4]; Example 14, 45 mg per day, at three weeks",one lesion was shrinking
same,lesions,"[4]; Example 14, 45 mg per day, by four weeks, immuran and prednisone reduced",healed and the second lesion was beginning to shrink
same,Ig antibody,"[4]; Example 14, at 20 weeks",zero
same,duration of benefit,"[5]; Example 8, 7.5 mg per day",more than 16 weeks
same,mucous,"[5]; Example 8, 7.5 mg per day, after 7 days",decrease in mucous
same,mucous and bleeding,"[5]; Example 8, 7.5 mg per day, after two weeks",no mucous or bleeding
same,adverse effect,"[5]; Example 8, 15 mg per day",tired during the day
same,"stools, bowel frequency, mucous","[5]; Example 8, 15 mg per day, after two weeks",stools became darker with increase bowel frequency of movements and mucous
same,"mucous, bowel movements, bleeding","[5]; Example 8, resumed at 7.5 mg per day","decrease in mucous, bowel movements and bleeding"
same,duration of benefit,"[5]; Example 10, 7.5 mg per day",18 weeks
same,"bowel frequency, bleeding and mucous","[5]; Example 10, 15 mg per day, within one week","significant decrease in bowel frequency, bleeding and mucous"
same,"bowel frequency, bleeding and mucous","[5]; Example 10, dose increased to 30 and then to 45 mg per day",reversal of benefits and then a further exacerbation of systems
same,"bowel frequency, bleeding and mucous","[5]; Example 10, resumed at 7.5 mg per day","significant decrease in frequency of bowel movement, bleeding and mucous"
same,efficacy in simple and complex partial seizures and secondarily generalized seizures,human epilepsy,effective as adjunctive therapy or as monotherapy
